Assay results as given in publication PMC10208956, “Microbial peptides activate tumour-infiltrating lymphocytes in glioblastoma” (Nature, 2023).

Key:
[1] = tested on: sorted CD4+ PE and FITC TCRVβ+ TILs; assay: Proliferation of TCRBV-sorted CD4+ TILs (without TCRBV6.1 and TCRBV6.2); type: cell-based, human; details: sheet 6b
[2] = tested on: isolated TIL-derived CD4+ TCCs; assay: All isolated TCCs tested against SIN3A* peptide: proliferation (SI); type: cell-based, human; details: for SI: proliferation, sheet 2b

## Ac-QPVEFNHAIHYVN-NH2 [SIN3A*]
[1]; replicate 1
  Proliferation (SI) of sorted CD4+ TILs: 9.2018
[1]; replicate 2
  Proliferation (SI) of sorted CD4+ TILs: 10.7366
[1]; replicate 3
  Proliferation (SI) of sorted CD4+ TILs: 6.162
[2]; TCC4
  SI: 326.128
[2]; TCC11
  SI: 238.815
[2]; TCC12
  SI: 287.573
[2]; TCC13
  SI: 453.401
[2]; TCC15
  SI: 28.5845
[2]; TCC16
  SI: 23.5776
[2]; TCC20
  SI: 244.524
[2]; TCC29
  SI: 34.8583
[2]; TCC31
  SI: 128.595
[2]; TCC32
  SI: 5.805
[2]; TCC33
  SI: 313.375
[2]; TCC35
  SI: 7.243
[2]; TCC37
  SI: 2.779
[2]; TCC38
  SI: 611.635
[2]; TCC43
  SI: 28.9619
[2]; TCC47
  SI: 29.6013
[2]; TCC52
  SI: 25.0598
[2]; TCC56
  SI: 22.816
[2]; TCC57
  SI: 3.669
[2]; TCC60
  SI: 23.5877
[2]; TCC63
  SI: 17.3519
[2]; TCC67
  SI: 7.121
[2]; TCC68
  SI: 7.155
[2]; TCC72
  SI: 5.137
[2]; TCC75
  SI: 11.5536
[2]; TCC76
  SI: 2.574
[2]; TCC88
  SI: 34.5634
[2]; TCC89
  SI: 2.064
[2]; TCC90
  SI: 56.5299
[2]; TCC91
  SI: 28.9154
[2]; TCC92
  SI: 23.8373
[2]; TCC93
  SI: 31.4988
[2]; TCC94
  SI: 41.408
[2]; TCC96
  SI: 17.6927
[2]; TCC97
  SI: 56.4388
[2]; TCC98
  SI: 67.9438
[2]; TCC99
  SI: 7.081
[2]; TCC101
  SI: 5.504
[2]; TCC102
  SI: 3.298
[2]; TCC103
  SI: 23.6756
[2]; TCC104
  SI: 20.3791
[2]; TCC107
  SI: 14.7872
[2]; TCC109
  SI: 67.7177
[2]; TCC110
  SI: 38.4196
[2]; TCC111
  SI: 16.0477
[2]; TCC112
  SI: 3.861
[2]; TCC113
  SI: 9.948
[2]; TCC114
  SI: 19.6549
[2]; TCC115
  SI: 9.682
[2]; TCC116
  SI: 36.7042
[2]; TCC118
  SI: 2.382
[2]; TCC120
  SI: 8.436
[2]; TCC121
  SI: 46.4714
[2]; TCC124
  SI: 44.5013
[2]; TCC126
  SI: 30.498
[2]; TCC127
  SI: 40.4213
[2]; TCC128
  SI: 20.9837
[2]; TCC129
  SI: 2.6751
[2]; TCC130
  SI: 24.2362
[2]; TCC132
  SI: 2.2794
[2]; TCC133
  SI: 8.094
[2]; TCC134
  SI: 2.175
[2]; TCC135
  SI: 13.0838
[2]; TCC137
  SI: 37.685
[2]; TCC138
  SI: 0.96
[2]; TCCs isolated from SIN3A*-stimulated TILs, 3 days, Fig. 2b
  CD4+ TCCs that responded by proliferation or production of IFNγ: 70 out of 124
